Data published in patent US10252989B2, “Picolinamides with fungicidal activity” (DOW AGROSCIENCES LLC, priority 2014, dated 2019).
Read-outs that look alike come from different tables or passages of the source.

Experiments:
[1] = test system: Zymoseptoria tritici; test: Fungicidal activity: leaf blotch of wheat (SEPTTR), disease control on wheat seedlings; format: in vivo; conditions: for pest or weed control at 121.5 g/ha: Low-volume cereal activity at 121.5 g/H, wheat leaf blotch
Method: (§1) All fungicides were evaluated using the aforementioned method for their activity vs. all target diseases. Wheat leaf blotch and brown rust activity were also evaluated using track spray applications, in which case the fungicides were formulated as EC formulations, containing 0.1% Trycol 5941 in the spray solutions. Wheat plants (variety Yuma) were grown from seed in a greenhouse in 50% mineral soil/50% soil-less Metro mix until the first leaf was fully emerged, with 7-10 seedlings per pot. These plants were inoculated with an aqueous spore suspension of Zymoseptoria tritici either prior to or after fungicide treatments. After inoculation the plants were kept in 100% relative humidity (one day in a dark dew chamber followed by two to three days in a lighted dew chamber at 20° C.) to permit spores to germinate and infect the leaf. The plants were then transferred to a greenhouse set at 20° C. for disease to develop. When disease symptoms were fully expressed on the 1st leaves of untreated plants, infection levels were assessed on a scale of 0 to 100 percent disease severity. Percent disease control was calculated using the ratio of disease severity on treated plants relative to untreated plants.

[2] = test system: Puccinia triticina; test: Fungicidal activity: wheat brown rust (PUCCRT), disease control on wheat seedlings; format: in vivo; conditions: Low-volume cereal activity at 121.5 g/H
Method: as §1, with “plants. Example B: Evaluation of Fungicidal Activity: Wheat Brown Rust (Puccinia triticina; Synonym: Puccinia recondita f. sp. tritici; Bayer code PUCCRT) Wheat plants (variety Yuma) were grown from seed in a greenhouse in 50% mineral soil/50% soil-less Metro mix until the first leaf was fully emerged, with 7-10 seedlings per pot. These plants were inoculated with an aqueous spore suspension of Puccinia triticina either prior to or after fungicide treatments. […] The plants were then transferred to a greenhouse set at 24° C. for disease to develop. Fungicide formulation, application and disease assessment followed the procedures as described in the Example A.” for “plants.”

[3] = 24 h, 1 Day Protectant, read-out: SEPTTR 1DP disease control rating
[4] = 72 h, 3 Day Curative, read-out: SEPTTR 3DC disease control rating
[5] = 24 h, 1 Day Protectant, read-out: PUCCRT 1DP disease control rating
[6] = 72 h, 3 Day Curative, read-out: PUCCRT 3DC disease control rating

Compound | pest or weed control at 100 ppm ([1]; 72 h, High-volume cereal activity at 100 ppm, 3 Day Curative, wheat seedlings, read-out: SEPTTR 3DC disease control rating) [%] | pest or weed control at 121.5 g/ha [1, 3] [%] | pest or weed control at 121.5 g/ha [1, 4] [%] | pest or weed control at 121.5 g/ha [2, 5] [%] | pest or weed control at 121.5 g/ha [2, 6] [%]
COc1ccnc(C(=O)N[C@@H](C)C(=O)O[C@@H](C)[C@H](Cc2ccccc2)c2ccccc2)c1O [Compound 119] | 0 to 80 |  |  |  | 
CC[C@H](NC(=O)c1nccc(OC)c1OC(C)=O)C(=O)O[C@@H](C)C(Cc1ccc(OC)cc1)Cc1ccc(OC)cc1 [Compound 273] |  | 80 to 100 | 0 to 80 | 0 to 80 | 0 to 80
CCCC[C@@H]([C@H](C)OC(=O)[C@H](C)NC(=O)c1nccc(OC)c1OC(C)=O)[C@@H](CC)Oc1ccccc1 [Compound 190] |  | 80 to 100 | 80 to 100 | 80 to 100 | 80 to 100
